# Assay results published in patent US20240327415A1, “Multicomponent Complexes, Including Salts, Crystalline Forms, and Hydrates and Solvates of ENT1 Inhibitors” (iTeos Belgium SA, priority 2023, published 2024).
# Assays:
# Format in all cases: physicochemical
# [1] = salt screen, XRPD of damp, dried and 40° C./75% RH stored samples (Salt Preparation Methods 1 and 2); parameters: key: A = amorphous; Evap. = isolated via evaporation
# Description: (§1) Salt Preparation Method 1: Approximately 25 mg of Compound 1 (free base) was weighed out into 1.5 mL screw-cap vials and a stirrer bar was added. For solid counterions, the appropriate amount of acid (1.0 or 2.0 equiv.) was weighed into separate 1.5 mL screw-cap vials. 100 μL of the appropriate solvent system was added to both the Compound 1 and the solid counterions. Stock solutions of liquid counterions were prepared, such that 100 μL contained 1.0 or 2.0 equiv. of acid. See counterion and solvent lists in Table 60 and Table 61 respectively.
# (§2) The samples were stirred at 40° C. for 5-10 min and then the acid solutions were added to Compound 1, rinsing out the transfer vial with a further 50 μL of solvent. […] Experiments were temperature cycled between 40° C. and 5° C. (1 h hold; 0.1° C./min ramp/cool) for ca. 24-68 h. Anti-solvent addition (ASA) was carried out to slurries at 5° C. then experiments were heated to 30° C. over 1 h. ASA was carried out at 30° C. or 40° C. where clear solutions or gums were observed.
# (§3) Temperature cycling was then continued for ca. 16-69 h, followed by further ASA and temperature cycling if required. Material was isolated at 5° C. and analyzed damp by XRPD. All isolated material was dried under vacuum at ca. 40° C. for ca. 17-91 h then re-analyzed by XRPD. The XRPD plate was stored at 40° C./75% RH for 24-48 h and then samples re-analyzed. Solutions were stored uncapped at ambient temperature to evaporate. Any residual solids were analyzed by XRPD.
# (§4) Salt Preparation Method 2: The general procedure adopted in preparing the potential salts is outlined below. A known mass of Compound 1 (free base) and a known volume of the appropriate solvent system were added to 20 mL scintillation vials. The required mol. equiv. of the appropriate counterions were added to the vials as solutions or slurries in the corresponding solvent system.
# (§5) The experiments were stirred at 40° C. for ca. 1 h, and then temperature cycled between 40° C. and 5° C. with 0.1° C./min ramp and 1 h hold between each step. Anti-solvent additions and subsequent slurrying at 5° C. were employed in order to facilitate crystallization. […] The damp and dried solids were subsampled and analyzed by XRPD. Where applicable, the dried solids were stored at 40° C./75% RH for 24-48 h in order to improve the crystallinity and/or facilitate solid form conversion to the desired form.
# [2] = as above; parameters: key to XRPD Analysis Damp/Dry: A = amorphous; Evap. = isolated via evaporation; details: Benzenesulfonic acid, 1 equiv.; IPA:H2O (75:25% v/v); AS tBME; (evap.)
# Description: as §1, §2, §3, §4, §5
# [3] = seven-day solid stability studies (ambient; 40° C./75% RH; 80° C.), XRPD and HPLC; parameters: key to XRPD Analysis: Amorphous Compound 1 (free base); Crystalline Form 1 Compound 1 (free base); details: for degradation by HPLC: after 7 days storage at 40° C./75% RH and ambient conditions; for decrease in purity by HPLC: after 7 days storage at 80° C.
# Description: In the experiment, one set of vials was exposed to ambient light, temperature and humidity conditions. Another was exposed openly to 40° C. and 75% RH conditions and a third was sealed and exposed to 80° C. conditions. After 7 days, XRPD and HPLC measurements were collected.
# Example 12-Stability Studies of Amorphous Compound 1 (free base) and Crystalline Form 1 Compound 1 (free base): Seven-day stability studies were carried out comparing amorphous Compound 1 (free base) and crystalline Form 1 Compound 1 (free base) at 40° C./75% RH, under ambient conditions and at 80° C. After storage at 40° C./75% RH and 80° C., the amorphous material formed glassy solids which were pale yellow (40° C./75% RH) or orange (80° C.). It is likely that the material melted and re-solidified at 80° C. and deliquesced at 40° C./75% RH. […] (decrease in purity of ca. 11% area).
# Example 15-Stabilities Studies-Crystalline Form 3 Compound 1 di(hydrogen sulfate) and Crystalline Form 4 Compound 1 mono(hydrogen sulfate): Seven-day stability studies were carried out on the prepared crystalline Form 3 Compound 1 di(hydrogen sulfate) and crystalline Form 4 Compound 1 mono(hydrogen sulfate) using the following conditions: (1) Ambient light, temperature and humidity conditions (open vial); (2) 40° C./75% RH (open vial); and (3) 80° C. (closed vial). After 7 days of storage under the specified conditions, XRPD and HPLC analyses were carried out on the residual solid materials, and the results are summarized in Table 51.
# Example 18-Seven Day Stability Study on Crystalline Form 2 Compound 1 di(hydrogen sulfate) trihydrate: A 7-day stability study was conducted on crystalline Form 2 Compound 1 di(hydrogen sulfate) trihydrate using the following conditions: (1) ambient light, temperature, and humidity conditions (open vial); (2) 40° C., 75% RH (open vial); and (3) 80° C. (closed vial). After 7 days of storage under the specified, XRPD and HPLC analyses were carried out on the residual solid materials.
# [4] = Dynamic Vapor Sorption (DVS)
# Description: (§6) METHOD A: In Example 11, approximately 5-15 mg of sample was placed into a mesh vapor sorption balance pan and loaded into either a DVS Intrinsic or DVS Advantage dynamic vapor sorption balance by Surface Measurement Systems. The sample was subjected to a ramping profile from 40-90% relative humidity (RH) at 10% increments, maintaining the sample at each step until a stable weight had been achieved (dm/dt 0.004%, minimum step length 30 minutes, maximum step length 500 minutes) at 25° C. After completion of the sorption cycle, the sample was dried using the same procedure to 0% RH and then a second sorption cycle back to 40% RH was carried out. Two cycles were performed. The weight change during the sorption/desorption cycles were plotted, allowing the hygroscopic nature of the sample to be determined. XRPD analysis was then carried out on the residual solid.
# as §6, with “B:” for “A:”, “Examples 2A, 3, 14, and 17,” for “Example 11,”, “10-20” for “5-15”, “determined.” for “determined. XRPD analysis was then carried out on the residual solid.”
# as §6, with “Approximately 10-20” for “METHOD A: In Example 11, approximately 5-15”, “RH” for “relative humidity (RH)”, “min,” for “minutes,”, “min)” for “minutes)”, “determined.” for “determined. XRPD analysis was then carried out on the residual solid.”
# [5] = Benzenesulfonic acid, 1 equiv., Acetonitrile, AS tBME
# [6] = Benzenesulfonic acid, 1 equiv., Ethanol, AS Heptane
# [7] = Benzenesulfonic acid, 1 equiv., Ethyl acetate, AS Heptane
# [8] = Benzenesulfonic acid, 1 equiv., MEK, AS Heptane
# [9] = Benzenesulfonic acid, 1 equiv., THF, AS Heptane
# [10] = Benzenesulfonic acid, 2 equiv., Acetonitrile, AS tBME
# [11] = Benzenesulfonic acid, 2 equiv., Ethanol, AS Heptane
# [12] = Benzenesulfonic acid, 2 equiv., Ethyl acetate, AS Heptane
# [13] = Benzenesulfonic acid, 2 equiv., IPA:H2O (75:25), AS tBME
# [14] = Benzenesulfonic acid, 2 equiv., MEK, AS Heptane
# [15] = Benzenesulfonic acid, 2 equiv., THF, AS Heptane
# [16] = Hydrochloric acid, 1 equiv., Acetonitrile, AS tBME, (evap.)
# [17] = Hydrochloric acid, 1 equiv., Ethanol*, AS Heptane, (evap.)
# [18] = Hydrochloric acid, 1 equiv., Ethyl acetate, AS Heptane
# [19] = Hydrochloric acid, 1 equiv., IPA:H2O (75:25% v/v), AS tBME, (evap.)
# [20] = Hydrochloric acid, 1 equiv., MEK, AS Heptane
# [21] = Hydrochloric acid, 1 equiv., THF, AS Heptane
compound,measurement,setting,value
"O=S(=O)(O)c1ccccc1 [Benzenesulfonic acid, 1 equiv.]",XRPD Analysis 40° C. 75% RH,[1]; [5],A
same,XRPD Analysis Damp,[1]; [5],A
same,XRPD Analysis Dry,[1]; [5],A
same,XRPD Analysis 40° C. 75% RH,[1]; [6],A
same,XRPD Analysis Damp,[1]; [6],A
same,XRPD Analysis Dry,[1]; [6],A
same,XRPD Analysis 40° C. 75% RH,[1]; [7],A
same,XRPD Analysis Damp,[1]; [7],A
same,XRPD Analysis Dry,[1]; [7],A
same,XRPD Analysis 40° C. 75% RH,"[1]; Benzenesulfonic acid, 1 equiv., IPA:H2O (75:25% v/v), AS tBME",A
same,XRPD Analysis 40° C. 75% RH,[1]; [8],A
same,XRPD Analysis Damp,[1]; [8],A
same,XRPD Analysis Dry,[1]; [8],A
same,XRPD Analysis 40° C. 75% RH,[1]; [9],A
same,XRPD Analysis Damp,[1]; [9],A
same,XRPD Analysis Dry,[1]; [9],A
same,XRPD Analysis Damp/Dry,[2],A (evap.)
"O=S(=O)(O)c1ccccc1 [Benzenesulfonic acid, 2 equiv.]",XRPD Analysis 40° C. 75% RH,[1]; [10],A
same,XRPD Analysis Damp,[1]; [10],A
same,XRPD Analysis Dry,[1]; [10],A
same,XRPD Analysis 40° C. 75% RH,[1]; [11],A
same,XRPD Analysis Damp,[1]; [11],A
same,XRPD Analysis Dry,[1]; [11],A
same,XRPD Analysis 40° C. 75% RH,[1]; [12],A
same,XRPD Analysis Damp,[1]; [12],A
same,XRPD Analysis Dry,[1]; [12],A
same,XRPD Analysis 40° C. 75% RH,[1]; [13],A
same,XRPD Analysis Damp,[1]; [13],A
same,XRPD Analysis Dry,[1]; [13],A
same,XRPD Analysis 40° C. 75% RH,[1]; [14],A
same,XRPD Analysis Damp,[1]; [14],A
same,XRPD Analysis Dry,[1]; [14],A
same,XRPD Analysis 40° C. 75% RH,[1]; [15],A
same,XRPD Analysis Damp,[1]; [15],A
same,XRPD Analysis Dry,[1]; [15],A
COc1cc(C(=O)O[C@@H]2CCCOc3cc(cc(OC)c3OC)C(=O)NCCCN3CCCN(CC2)CC3)cc(OC)c1OC [Form 1 Compound 1],XRPD Analysis,"[3]; 7 days, 40° C./75% RH",A
same,Post-Storage Observations,"[3]; 7 days, 80° C.",Orange glassy
same,Solid Purity,"[3]; 7 days, 80° C.",84.1 % area
same,XRPD Analysis,"[3]; 7 days, 80° C.",1
same,Post-Storage Observations,"[3]; 7 days, Ambient",White solid
same,Solid Purity,"[3]; 7 days, Ambient",99.9 % area
same,XRPD Analysis,"[3]; 7 days, Ambient",A
COc1cc(C(=O)O[C@@H]2CCCOc3cc(cc(OC)c3OC)C(=O)NCCCN3CCCN(CC2)CC3)cc(OC)c1OC.O=S(=O)(O)O [Form 4 mono(hydrogen sulfate)],HPLC,"[3]; 7 days, 40° C./75% RH (open vial)",99.87 % area
same,HPLC,"[3]; 7 days, 40° C./75% RH, open vial",99.87 % area
same,HPLC,"[3]; 7 days, 80° C. (closed vial)",99.64 % area
same,XRPD,"[3]; 7 days, 80° C. (closed vial)",Amorphous*
same,HPLC,"[3]; 7 days, 80° C., sealed",99.64 % area
same,XRPD,"[3]; 7 days, 80° C., sealed",Amorphous*
same,HPLC,"[3]; 7 days, Ambient (open vial)",99.89 % area
same,HPLC,"[3]; 7 days, Ambient, open vial",99.89 % area
same,HPLC,[3]; Input sample,99.66 % area
"Cl [Hydrochloric acid, 1 equiv.]",XRPD Analysis 40° C. 75% RH,"[1]; Hydrochloric acid, 1 equiv., Acetonitrile, AS tBME",A
same,XRPD Analysis Damp,[1]; [16],A
same,XRPD Analysis Dry,[1]; [16],A
same,XRPD Analysis 40° C. 75% RH,"[1]; Hydrochloric acid, 1 equiv., Ethanol*, AS Heptane",A
same,XRPD Analysis Damp,[1]; [17],A
same,XRPD Analysis Dry,[1]; [17],A
same,XRPD Analysis 40° C. 75% RH,[1]; [18],A
same,XRPD Analysis Damp,[1]; [18],A
same,XRPD Analysis Dry,[1]; [18],A
same,XRPD Analysis 40° C. 75% RH,"[1]; Hydrochloric acid, 1 equiv., IPA:H2O (75:25% v/v), AS tBME",A
same,XRPD Analysis Damp,[1]; [19],A
same,XRPD Analysis Dry,[1]; [19],A
same,XRPD Analysis 40° C. 75% RH,[1]; [20],A
same,XRPD Analysis Damp,[1]; [20],A
same,XRPD Analysis Dry,[1]; [20],A
same,XRPD Analysis 40° C. 75% RH,[1]; [21],A
same,XRPD Analysis Damp,[1]; [21],A
same,XRPD Analysis Dry,[1]; [21],A
COc1cc(C(=O)O[C@@H]2CCCOc3cc(cc(OC)c3OC)C(=O)NCCCN3CCCN(CC2)CC3)cc(OC)c1OC [amorphous Compound 1 (free base)],Post-Storage Observations,"[3]; 7 days, 40° C./75% RH",Pale yellow
same,Solid Purity,"[3]; 7 days, 40° C./75% RH",98.8 % area
same,XRPD Analysis,"[3]; 7 days, 40° C./75% RH",A
same,Post-Storage Observations,"[3]; 7 days, 80° C.",Orange glassy
same,Solid Purity,"[3]; 7 days, 80° C.",87.5 % area
same,XRPD Analysis,"[3]; 7 days, 80° C.",A
same,Post-Storage Observations,"[3]; 7 days, Ambient",White solid
same,Solid Purity,"[3]; 7 days, Ambient",98.9 % area
same,XRPD Analysis,"[3]; 7 days, Ambient",A
same,solid form by XRPD after storage,"[3]; 7 days, all storage conditions",remained amorphous
same,degradation by HPLC,[3],no significant degradation
same,decrease in purity by HPLC,[3],ca. 11 % area
same,Input Material Purity,[3]; before storage,98.8 % area
same,hygroscopicity,[4]; 25° C.,hygroscopic
COc1cc(C(=O)O[C@@H]2CCCOc3cc(cc(OC)c3OC)C(=O)NCCCN3CCCN(CC2)CC3)cc(OC)c1OC [crystalline Form 1 Compound 1 (free base)],solid form by XRPD after storage,"[3]; 7 days, 40° C./75% RH",amorphous material was recovered
same,solid form by XRPD after storage,"[3]; 7 days, 80° C.",amorphous material was recovered
same,solid form by XRPD after storage,"[3]; 7 days, ambient conditions",retained
same,degradation by HPLC,[3],no significant degradation
same,decrease in purity by HPLC,[3],ca. 15 % area
same,hygroscopicity,[4]; 25° C.,slightly hygroscopic
same,post-DVS sample (XRPD / appearance),[4]; DVS at 25° C.,predominantly amorphous material was recovered
same,moisture uptake (DVS),"[4]; at 80% RH, second sorption cycle, after likely formation of amorphous material",3.3%
same,moisture uptake (DVS),"[4]; between 40-80% RH, first sorption cycle, 25° C.",0.9%
same,moisture uptake (DVS),"[4]; between 80-90% RH, 25° C.",3.8%
